Literature values in patent US10011626B2, “Method for the purification of decitabine” (Johnson Matthey Public Limited Company, priority 2012, dated 2018).

## Nc1ncn([C@H]2CC(O)[C@@H](CO)O2)c(=O)n1 (stereo partly drawn) [decitabine, 4-amino-1-(2-deoxy-β-D-erythropentofuranosyI)-1,3,5-triazin-2-(1H)-one]
solvent: 1,1,1,3,3,3-hexafluoro-2-propanol, slightly soluble
  solubility in 1,1,1,3,3,3-hexafluoro-2-propanol: about 18 mg/mL
solvent: methyl sulfoxide
  solubility in methyl sulfoxide: approximately 37 mg/mL
solvent: water, sparingly soluble
  solubility in water: about 8 mg/mL
